“Also recorded” adds a separate entry of the source.
Tests used:
mouse NVL = target: T1, mouse NVL (Mus musculus, UniProt Q9DBY8); test: Viability of NVL^AID/AID cells relying on ectopic mouse NVL (Ph-IAA); format: cell-based; conditions: endogenous NVL degraded with Ph-IAA
T1 construct: expressed in transfected cells; host or cells: HCT116 NVL^AID/AID cells (human cells, viral infection)
Text: Next, we investigated whether inhibitors of NVL could inhibit the growth of cell line derived xenografts tumors in mice, and whether systemic inhibition of NVL leads to specific toxicities. […] To test the potency of MM927 against mouse NVL within the same cell type, we ectopically expressed either human or mouse NVL in NVL^AID/AID cells. Treatment with Ph-IAA degrades the endogenous protein so that the cells must rely solely on ectopically expressed NVL. In the mock infected cells, degrading NVL^AID/AID by the addition of Ph-IAA reduced cell viability as expected, and the viability was completely rescued by expression of either ectopic mouse or human NVL.

[1] = Toxicity read-outs in efficacy study (body weight, blood counts, blood chemistry); format: in vivo; conditions: 35 mg/kg IP twice a day for 21 days
Procedure: Having established the kinetics of MM927 mediated NVL inhibition in xenograft tumors, we administered 35 mg/kg MM927 IP twice a day for 21 days to mice harboring tumors derived from either HCT116 NVL wild type or NVL^R403W cells. […] Taken together, we concluded that the potent, and bioavailable analog MM927 reduces tumor growth in mouse xenografts by inhibiting NVL without toxicity.
Efficacy study: Five million parental HCT116 cells or HCT116 NVL^R403W in a volume of 0.1 mL were implanted in the right flank. Tumor volumes were measured every 2 to 4 days with calipers. Volume is calculated as [(L*W^2)*3.14]/6. When volumes reached ˜110 mm^3, treatment was started with 35 mg/kg MM927 or vehicle control (0.2 mL/mouse) twice a day for 21 days. Mice were euthanized at the end of the 21-day treatment period or when any tumor reached 2 cm in its largest diameter, in agreement with the approved animal protocol. At the end of treatment, blood and tumor tissue were collected for pharmacokinetic analysis, measurement of complete blood counts, and blood chemistry measurements as described. Serum alanine transaminase and blood urea nitrogen were analyzed using VITROS MicroSlide technology.

[2] = test system: p53 and p21 in HCT116 NVL^R403W tumors; test: Pharmacodynamic study: p53 and p21 in HCT116 NVL^R403W xenograft tumors; format: in vivo, mouse; conditions: 35 mg/kg IP, opposing flank of same mice
Procedure: Plasma exposure was dose-dependent up to 35 mg/kg (IP injection) reaching a maximum concentration at 17.86 μM. These levels exceed the anti-proliferative IC99 of MM927 in cells expressing either human or mouse NVL. In a subsequent pharmacodynamic (PD) study, we asked if we could assess on-target NVL inhibition via a subsequent p53 and/or p21 induction in tumor xenografts in mice treated with MM927. We implanted HCT116 NVL^WT and NVL^R403W cells subcutaneously on either flank of the mice and evaluated the levels of p53 and p21 in either tumor at various time points after IP administration of 35 mg/kg of MM927.
Pharmacodynamic study: Five million parental HCT116 cells or HCT116 NVL^R403W in a volume of 0.1 mL were implanted using a subcutaneous injection in the left and right side of four-to-eight-week-old male and female NSG mice, respectively. Tumor volumes were measured every 2 to 4 days with calipers. When the tumor diameter reached 0.5 cm in diameter, mice were dosed with 35 mg/kg MM927 or vehicle formulated as 10% DMSO/10% Kolliphor EL/10% Solutal/70% D5W and administered via the intraperitoneal route. At each time point (0, 3, 6, 12, 24 hours post dose), tumors were harvested and flash frozen for Western blot analysis for p53 and p21 as described.

p53 and p21 = p53 and p21 protein levels in HCT116 cells; format: cell-based, human
Text: Inhibition of 60S ribosome biogenesis is known to induce the stability and upregulation of p53, which could serve as a potential pharmacodynamics marker for MM017 in HCT116 cells. […] We used PRISM (Broad Institute) to evaluate the selectivity of MM017 across 902 cancer cell lines and then correlated this selectivity to 1,215 clinical and pre-clinical compounds in the PRISM database. […] These observations indicate that oxaliplatin and carmofur, like MM017, target ribosome biogenesis.

HCT116 cells = test: Genome-wide CRISPR/Cas9 knockout screen in HCT116 cells; format: cell-based, human; conditions: 1 μM pulsed intermittently over 21 days
Text: To better understand how inhibition of NVL by MM017 leads to cell death, we performed a genome wide pooled CRISPR/Cas9 knockout screen in HCT116 cells using a library of guide RNAs targeting 19,114 genes. Cells were pulsed intermittently with vehicle or MM017 over 21 days, at which point MM017 treated cells had undergone 9.79 fewer population doublings. Massively parallel sequencing of PCR products amplified from genomic DNA was used to determine relative levels of sgRNA sequences to infer the relative impact of each gene on compound sensitivity. […]
HCT116 cells stably expressing Cas9 were generated by infecting cells with lentiCas9-Blast (Addgene #52962) and selection with 10 μg/mL blasticidin. […] Viable cells were counted at each passage and collected after 21 days. Genomic DNA was extracted using Blood & Cell Culture DNA Maxi kit (QIAGEN #13362), and concentrations were determined using Quant-iT PicoGreen dsDNA assay kits (Invitrogen #P7589). sgRNAs were PCR-amplified using 28 cycles from approximately 650 μg genomic DNA (10 μg DNA/100 μL reaction) using Ex Taq DNA Polymerase (TaKaRa #RR001B), 8 staggered P5 primers, and 1 unique P7 index primer per sample as described in the “Protocol PCR of sgRNAs from gDNA for Illumina sequencing” published by the Broad Institute (51). […] The mapping reads were counted for each sgRNA using SAMtools (v1.9) with the options “-F 2308-q 1”. […]

T1 sequence (Q9DBY8 whole entry): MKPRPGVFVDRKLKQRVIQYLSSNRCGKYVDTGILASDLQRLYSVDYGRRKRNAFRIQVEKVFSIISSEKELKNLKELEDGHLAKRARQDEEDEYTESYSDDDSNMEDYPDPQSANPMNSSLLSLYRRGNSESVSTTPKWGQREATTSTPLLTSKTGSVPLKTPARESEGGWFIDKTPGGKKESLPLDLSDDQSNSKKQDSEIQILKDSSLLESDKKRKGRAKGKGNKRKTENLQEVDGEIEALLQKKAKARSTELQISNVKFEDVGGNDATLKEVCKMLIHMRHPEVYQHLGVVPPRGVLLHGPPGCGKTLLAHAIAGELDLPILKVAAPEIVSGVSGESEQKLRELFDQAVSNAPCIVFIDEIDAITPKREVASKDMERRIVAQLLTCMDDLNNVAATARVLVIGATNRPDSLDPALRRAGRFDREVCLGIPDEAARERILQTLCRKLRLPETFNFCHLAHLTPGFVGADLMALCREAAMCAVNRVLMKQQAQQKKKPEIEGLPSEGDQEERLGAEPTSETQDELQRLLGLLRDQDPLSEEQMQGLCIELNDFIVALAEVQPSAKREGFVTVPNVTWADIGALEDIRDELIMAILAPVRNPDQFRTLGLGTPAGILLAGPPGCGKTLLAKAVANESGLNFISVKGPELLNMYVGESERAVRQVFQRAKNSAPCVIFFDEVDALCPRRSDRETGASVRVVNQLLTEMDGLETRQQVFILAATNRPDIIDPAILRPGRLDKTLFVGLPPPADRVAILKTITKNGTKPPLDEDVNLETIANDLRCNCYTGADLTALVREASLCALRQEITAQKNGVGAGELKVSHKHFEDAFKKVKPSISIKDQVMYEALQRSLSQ

CC#CCN1C(=O)c2ccc(F)cc2Sc2cc(NC(=O)c3ccc4oc(=O)n(C)c4c3)ccc21 [MM927, N-(10-(But-2-yn-1-yl)-3-fluoro-11-oxo-10,11-dihydrodibenzo[b,f][1,4]thiazepin-7-yl)-3-methyl-2-oxo-2,3-dihydrobenzo[d]oxazole-5-carboxamide]
IC50 (mouse NVL): 207 nM
body weight, red and white blood cells, hemoglobin, platelets, alanine transaminase, blood urea nitrogen versus vehicle [1]: no significant difference
overt toxicity [1]: no signs of overt toxicity
p53 and p21 in NVL^R403W tumor [2]: no change in p53 and p21

COCCN1C(=O)c2ccccc2Sc2cc(NC(=O)c3ccoc3)ccc21 [MM017]
p53 levels in parental HCT116 cells (p53 and p21): upregulates p53 levels; also recorded: increase in p53 at 6 hours post treatment; also recorded: dose-dependent increase in the levels of p53
p53 and p21 abundance in NVL^P307T cells (p53 and p21; NVL^P307T): no changes in the abundance of either protein
fewer population doublings than vehicle (HCT116 cells): 9.79
